Measurements taken from paper PMC6408276 (ACS infectious diseases, 2019).
Several values for one entry are separate records, joined by “and”; a condition that tells them apart may be missing. Equal values may be shown once.

Columns and labels:
[1] = test system: Colombiana strain of Trypanosoma cruzi; test: Mouse model of T. cruzi infection: parasitemia, survival and natural relapse; type: in vivo
[2] = test system: Colombiana strain of Trypanosoma cruzi; test: Assessment of therapeutic failure after cyclophosphamide immunosuppression; type: in vivo; conditions: for Blood parasite load determined by qPCR: n=5, after cyclophosphamide; for Blood parasite load determined by qPCR / % Negative blood qPCR: VFV in 10 % DMSO plus 5 % Gum Arabic; for % Blood parasite clearence (negative qPCR): n=10, after cyclophosphamide immunosuppression, VFV in DGAT; for % Negative blood qPCR: surviving mice n=5, after cyclophosphamide
[3] = PK studies in mice after single oral administration; type: in vivo; conditions: for Life time (time until compound becomes undetectable, below 0.1 μM): mice plasma; for Life time (time until compound becomes undetectable, below 0.1 μM) / Bioavailability when Tween 80 was added to the vehicle (DGAT vs HPCD): single oral 25 mg/kg; for Bioavailability when Tween 80 was added to the vehicle (DGAT vs HPCD): mice; for Tmax: mouse, po, 25 mg/kg
[4] = cited from earlier work
NIH/3T3 = conditions: cited from earlier work
CYP3A4 = conditions: read-out: CYP3A4 IC50; cited from earlier work
[5] = cited from earlier work; remark: listed apart in the source
[6] = cited from earlier work; remark: listed apart in the source
[7] = Swiss male mice n=5, 60 days po, VNI and VFV in 10 % DMSO plus 5 % Gum Arabic
[8] = Swiss male mice n=10, 60 days po, VFV in DGAT

SMILES	% Animal survival [1, 7]	Natural relapse after the therapy [1, 7]	% Animal survival [1, 8]	Natural relapse after the therapy [1, 8]	Blood parasite load determined by qPCR [2]	% Blood parasite clearence (negative qPCR) [2]	% Negative blood qPCR [2]	Life time (time until compound becomes undetectable, below 0.1 μM) ([3]; HPCD formulation)	Bioavailability when Tween 80 was added to the vehicle (DGAT vs HPCD) [3]	Tmax ([3]; in vivo)	Hepatic clearance [4]	EC25 (cellular toxicity) (NIH/3T3)	IC50 (CYP3A4)	% Parasitemia suppression [1, 8]	NOAEL (in vivo toxicity) [5]	Life time (time until compound becomes undetectable, below 0.1 μM) ([3]; DGAT formulation)	Tmax ([3]; plasma)	% Parasitemia suppression [1, 7]	Sustained negative parasitemia after cyclophosphamide (light microscopy) ([2]; n=5, 10 % DMSO plus 5 % Gum Arabic vehicle)	Maximal concentration in mice plasma [6]
O=C(Cn1ccnc1[N+](=O)[O-])NCc1ccccc1 [Bz, benznidazole, reference compound]	100%	all animals and 5 out of 5 mice	100%	6 mice and 6 out of 10 mice	13038 ± 13612	30%	0%													
O=C(N[C@@H](Cn1ccnc1)c1ccc(-c2ccc(F)cc2)cc1F)c1ccc(-c2nnc(-c3ccccc3)o2)cc1 [VFV, (R)-N-(1-(3,4′-difluorobiphenyl-4-yl)-2-(1H-imidazol-1-yl)ethyl)-4-(5-phenyl-1,3,4oxadiazol-2-yl)benzamide]	100%	all animals and 5 out of 5 mice	100%	5 mice and 5 out of 10 mice	905 ± 854	0%	0%	<24 h	three-fold higher bioavailability	4 h	moderate hepatic clearance	> 50 µM	3.6 µM	99.8%	> 200 mg/kg					
O=C(N[C@@H](Cn1ccnc1)c1ccc(Cl)cc1Cl)c1ccc(-c2nnc(-c3ccccc3)o2)cc1 [VNI, (R)-N-(1-(2,4-dichlorophenyl)-2-(1H-imidazol-1-yl)ethyl)-4-(5-phenyl-1,3,4-oxadi-azol-2 yl)benzamide]	100%	3 out of five and 3 out of 5 mice			372 ± 528		20%	10 h	three-fold higher bioavailability							16 h	2 h	99.9%	20%	
